Values quoted from earlier work, collected in PubChem BioAssay AID1259409 (Chemical Carcinogenesis Research Information System (CCRIS), 2018).

Test system: rodent chemically induced tumor inhibition, incidence and multiplicity
Assay: CCRIS tumor inhibitor studies
Settings: Dose [Inhibitor]: 0

**Q.** For `COc1cc(/C=C/C(=O)CC(=O)/C=C/c2ccc(O)c(OC)c2)ccc1O`, which “tumour outcome (control, treated, inhibition, significance)” value (Carcinogen: AZOXYMETHANE, 25843-45-2, 4% COMMERCIAL GRADE CURCUMIN IN DIET FOR 35 WK BEGINNING 2 WK PRIOR TO CARCINOGEN TREATMENT (STUDY DURATION: 35 WK), Route [Inhibitor]: ORAL, Species: MOUSE, Strain/Sex: CF-1/FEMALE, Target Tissue: Type of Lesion: COLON: ADENOCARCINOMA, Dose [Carcinogen]: 10 MG/KG BW IN 100 µL NORMAL SALINE 1/WK FOR 6 WK, Promoter: NONE USED) is on record?
**A.** 40%, 15%, 63%, not significant

**Q.** What about the “tumour outcome (control, treated, inhibition, significance)” value (Carcinogen: AZOXYMETHANE, 25843-45-2, 4% COMMERCIAL GRADE CURCUMIN IN DIET FOR 35 WK BEGINNING 2 WK PRIOR TO CARCINOGEN TREATMENT (STUDY DURATION: 35 WK), Route [Inhibitor]: ORAL, Species: MOUSE, Strain/Sex: CF-1/FEMALE, Target Tissue: Type of Lesion: COLON: ADENOMA, Dose [Carcinogen]: 10 MG/KG BW IN 100 µL NORMAL SALINE 1/WK FOR 6 WK, Promoter: NONE USED) of the same compound?
**A.** 93%, 56%, 40%, not significant

**Q.** And the “tumour outcome (control, treated, inhibition, significance)” value (Carcinogen: AZOXYMETHANE, 25843-45-2, 200O PPM IN DIET FOR 56 WK BEGINNING 2 WK PRIOR TO CARCINOGEN TREATMENT (STUDY DURATION: 56 WK), Route [Inhibitor]: ORAL, Species: RAT, Strain/Sex: F344/MALE, Target Tissue: Type of Lesion: COLON: ADENOCARCINOMA, Dose [Carcinogen]: 15 MG/KG BW 1/WK FOR 2 WK, Promoter: NONE USED)?
**A.** 81%, 47%, 42%, p<0.004

**Q.** What about the “tumour outcome (control, treated, inhibition, significance)” value (Carcinogen: BENZO[A]PYRENE, 50-32-8, 0.5% COMMERCIAL GRADE CURCUMIN IN DIET FOR 7 WK BEGINNING 2 WK PRIOR TO CARCINOGEN TREATMENT (STUDY DURATION: 30 WK), Route [Inhibitor]: ORAL, Species: MOUSE, Strain/Sex: STRAIN-A/FEMALE, Target Tissue: Type of Lesion: FORESTOMACH: PAPILLOMA, Dose [Carcinogen]: 1.5 MG IN 100 µL CORN OIL 1/WK FOR 4 WK, Promoter: NONE USED) of the same compound?
**A.** 97%, 87%, 10%, not significant

**Q.** What about the “tumour outcome (control, treated, inhibition, significance)” value (Carcinogen: BENZO[A]PYRENE, 50-32-8, 0.5% COMMERCIAL GRADE CURCUMIN IN DIET FOR 7 WK BEGINNING 2 WK PRIOR TO CARCINOGEN TREATMENT (STUDY DURATION: 30 WK), Route [Inhibitor]: ORAL, Species: MOUSE, Strain/Sex: STRAIN-A/FEMALE, Target Tissue: Type of Lesion: FORESTOMACH: SQUAMOUS CELL CARCINOMA, Dose [Carcinogen]: 1.5 MG IN 100 µL CORN OIL 1/WK FOR 4 WK, Promoter: NONE USED) of the same compound?
**A.** 41%, 23%, 44%, not significant

**Q.** What about the “tumour outcome (control, treated, inhibition, significance)” value (Carcinogen: BENZO[A]PYRENE, 50-32-8, 0.5% COMMERCIAL GRADE CURCUMIN IN DIET FOR 23 WK BEGINNING 1 WK POST CARCINOGEN TREATMENT (STUDY DURATION: 30 WK), Route [Inhibitor]: ORAL, Species: MOUSE, Strain/Sex: STRAIN-A/FEMALE, Target Tissue: Type of Lesion: FORESTOMACH: PAPILLOMA, Dose [Carcinogen]: 1.5 MG IN 100 µL CORN OIL 1/WK FOR 4 WK, Promoter: NONE USED) of the same compound?
**A.** 97%, 89%, 8%, not significant

**Q.** And the “tumour outcome (control, treated, inhibition, significance)” value (Carcinogen: BENZO[A]PYRENE, 50-32-8, 0.5% COMMERCIAL GRADE CURCUMIN IN DIET FOR 23 WK BEGINNING 1 WK POST CARCINOGEN TREATMENT (STUDY DURATION: 30 WK), Route [Inhibitor]: ORAL, Species: MOUSE, Strain/Sex: STRAIN-A/FEMALE, Target Tissue: Type of Lesion: FORESTOMACH: SQUAMOUS CELL CARCINOMA, Dose [Carcinogen]: 1.5 MG IN 100 µL CORN OIL 1/WK FOR 4 WK, Promoter: NONE USED)?
**A.** 41%, 30%, 27%, not significant

**Q.** And the “tumour outcome (control, treated, inhibition, significance)” value (Carcinogen: BENZO[A]PYRENE, 50-32-8, 2% COMMERCIAL GRADE CURCUMIN IN DIET FOR 7 WK BEGINNING 2 WK PRIOR TO CARCINOGEN TREATMENT (STUDY DURATION: 30 WK), Route [Inhibitor]: ORAL, Species: MOUSE, Strain/Sex: STRAIN-A/FEMALE, Target Tissue: Type of Lesion: FORESTOMACH: PAPILLOMA, Dose [Carcinogen]: 1.5 MG IN 100 µL CORN OIL 1/WK FOR 4 WK, Promoter: NONE USED)?
**A.** 97%, 83%, 14%, not significant

**Q.** What about the “tumour outcome (control, treated, inhibition, significance)” value (Carcinogen: BENZO[A]PYRENE, 50-32-8, 2% COMMERCIAL GRADE CURCUMIN IN DIET FOR 7 WK BEGINNING 2 WK PRIOR TO CARCINOGEN TREATMENT (STUDY DURATION: 30 WK), Route [Inhibitor]: ORAL, Species: MOUSE, Strain/Sex: STRAIN-A/FEMALE, Target Tissue: Type of Lesion: FORESTOMACH: SQUAMOUS CELL CARCINOMA, Dose [Carcinogen]: 1.5 MG IN 100 µL CORN OIL 1/WK FOR 4 WK, Promoter: NONE USED) of the same compound?
**A.** 41%, 10%, 76%, not significant

**Q.** What about the “tumour outcome (control, treated, inhibition, significance)” value (Carcinogen: BENZO[A]PYRENE, 50-32-8, 2% COMMERCIAL GRADE CURCUMIN IN DIET FOR 23 WK BEGINNING 1 WK POST CARCINOGEN TREATMENT (STUDY DURATION: 30 WK), Route [Inhibitor]: ORAL, Species: MOUSE, Strain/Sex: STRAIN-A/FEMALE, Target Tissue: Type of Lesion: FORESTOMACH: PAPILLOMA, Dose [Carcinogen]: 1.5 MG IN 100 µL CORN OIL 1/WK FOR 4 WK, Promoter: NONE USED) of the same compound?
**A.** 97%, 79%, 19%, not significant

**Q.** And the “tumour outcome (control, treated, inhibition, significance)” value (Carcinogen: BENZO[A]PYRENE, 50-32-8, 2% COMMERCIAL GRADE CURCUMIN IN DIET FOR 23 WK BEGINNING 1 WK POST CARCINOGEN TREATMENT (STUDY DURATION: 30 WK), Route [Inhibitor]: ORAL, Species: MOUSE, Strain/Sex: STRAIN-A/FEMALE, Target Tissue: Type of Lesion: FORESTOMACH: SQUAMOUS CELL CARCINOMA, Dose [Carcinogen]: 1.5 MG IN 100 µL CORN OIL 1/WK FOR 4 WK, Promoter: NONE USED)?
**A.** 41%, 14%, 66%, not significant

**Q.** What about the “tumour outcome (control, treated, inhibition, significance)” value (Carcinogen: BENZO[A]PYRENE, 50-32-8, 3 UMOL IN ACETONE 1/WK FOR 10 WK APPLIED 5 MIN PRIOR TO EACH CARCINOGEN DOSE (STUDY DURATION: 32 WK), Route [Inhibitor]: DERMAL, Species: MOUSE, Strain/Sex: CD-1/FEMALE, Target Tissue: Type of Lesion: SKIN: TUMORS, Dose [Carcinogen]: 20 NMOL 1/WK FOR 10 WK, Promoter: 12-O-TETRADECANOYLPHORBOL-13-ACETATE, 16561-29-8) of the same compound?
**A.** 100%, 75%, 25%, not calculated

**Q.** And the “tumour outcome (control, treated, inhibition, significance)” value (Carcinogen: BENZO[A]PYRENE, 50-32-8, 5% IN DIET FOR 8 WK BEGINNING 2 WK PRIOR TO CARCINOGEN TREATMENT (STUDY DURATION: 20 WK), Route [Inhibitor]: ORAL, Species: MOUSE, Strain/Sex: SWISS/FEMALE, Target Tissue: Type of Lesion: FORESTOMACH: TUMOR, Dose [Carcinogen]: 1 MG IN 0.1 ML PEANUT OIL 2/WK FOR 4 WK, Promoter: NONE USED)?
**A.** 20/20 (100%), 12/20 (60%), 40%, p<0.001

**Q.** What about the “tumour outcome (control, treated, inhibition, significance)” value (Carcinogen: BENZO[A]PYRENE, 50-32-8, 10 UMOL IN ACETONE 1/WK FOR 10 WK APPLIED 5 MIN PRIOR TO EACH CARCINOGEN DOSE (STUDY DURATION: 32 WK), Route [Inhibitor]: DERMAL, Species: MOUSE, Strain/Sex: CD-1/FEMALE, Target Tissue: Type of Lesion: SKIN: TUMORS, Dose [Carcinogen]: 20 NMOL 1/WK FOR 10 WK, Promoter: 12-O-TETRADECANOYLPHORBOL-13-ACETATE, 16561-29-8) of the same compound?
**A.** 100%, 82%, 18%, not calculated
